The values below come from US20260132164A1, “PNU ANTHRACYCLINE DERIVATIVES AND METHODS OF USE THEREOF” (Merck Sharp & Dohme LLC, priority 2022, published 2026).

The first assay concerns BxPC3. Description: CellTiter-Glo 2.0 Cytotoxicity Assay. The format is cell-based. To be noted: CellTiter-Glo 2.0 luminescence; compound added day 1, read on day 4 or 5; 3000 cells/well. For orientation: Cellular ATP, detected with luciferase, serves as a proxy for viable cell number.
In turn, `COc1cccc2c1C(=O)c1c(O)c3c(c(O)c1C2=O)C[C@@](O)(C(=O)NC1CNCC1(F)F)C[C@@H]3O[C@H]1C[C@H]2[C@H](O[C@@H]3[C@@H](OC)OCCN32)[C@H](C)O1` (stereo partly drawn) [Compound 17] registered an EC50 of 10.7 nM.

The assay is the same for the next values; noted with them: Homo sapiens, BXPC-3, CellTiter-Glo 2.0 luminescence; compound added day 1, read on day 4 or 5; 3000 cells/well.
Take `COc1cccc2c1C(=O)c1c(O)c3c(c(O)c1C2=O)C[C@@](O)(C(=O)N(C)CCN)C[C@@H]3O[C@H]1C[C@H]2[C@H](O[C@@H]3[C@@H](OC)OCCN32)[C@H](C)O1` [Compound 13]: the half-maximal effective concentration (EC50) was 5.4 nM.

The compound `COc1cccc2c1C(=O)c1c(O)c3c(c(O)c1C2=O)C[C@@](O)(C(=O)N1CC2(CNC2)C1)C[C@@H]3O[C@H]1C[C@H]2[C@H](O[C@@H]3[C@@H](OC)OCCN32)[C@H](C)O1` [Compound 30] returned an EC50 of 14 nM.

On to `COc1cccc2c1C(=O)c1c(O)c3c(c(O)c1C2=O)C[C@@](O)(C(=O)NCc1nc(N)cn1C)C[C@@H]3O[C@H]1C[C@H]2[C@H](O[C@@H]3[C@@H](OC)OCCN32)[C@H](C)O1` [Compound 82], for which the concentration giving a half-maximal response (EC50) was 0.26 nM.

Compound `COc1cccc2c1C(=O)c1c(O)c3c(c(O)c1C2=O)C[C@@](O)(C(=O)NCC(C)(C)N)C[C@@H]3O[C@H]1C[C@H]2[C@H](O[C@@H]3[C@@H](OC)OCCN32)[C@H](C)O1` [Compound 61, (2S,4S)—N-(2-amino-2-methylpropyl)-2,5,12-trihydroxy-7-methoxy-4-(((1S,3R,4aS,9S,9aR,10aS)-9-methoxy-1-methyloctahydro-1H-pyrano[4′,3′:4,5]oxazolo[2,3-c][1,4]oxazin-3-yl)oxy)-6,11-dioxo-1,2,3,4,6,11-hexahydrotetracene-2-carboxamide] registered a concentration giving a half-maximal response (EC50) of 8.7 nM.

Consider `COc1cccc2c1C(=O)c1c(O)c3c(c(O)c1C2=O)C[C@@](O)(C(=O)NCc1ccc(CN)cc1)C[C@@H]3O[C@H]1C[C@H]2[C@H](O[C@@H]3[C@@H](OC)OCCN32)[C@H](C)O1` [Compound 41], for which it took 0.42 nM to reach a half-maximal effect (EC50).

The compound `COc1cccc2c1C(=O)c1c(O)c3c(c(O)c1C2=O)C[C@@](O)(C(=O)NCCN1C(=O)CNC1=O)C[C@@H]3O[C@H]1C[C@H]2[C@H](O[C@@H]3[C@@H](OC)OCCN32)[C@H](C)O1` [Compound 62] registered an EC50 of 0.19 nM.

In turn, `COc1cccc2c1C(=O)c1c(O)c3c(c(O)c1C2=O)C[C@@](O)(C(=O)NCC1CNC1)C[C@@H]3O[C@H]1C[C@H]2[C@H](O[C@@H]3[C@@H](OC)OCCN32)[C@H](C)O1` [Compound 47] displayed an EC50 of 9.4 nM.

`COc1cccc2c1C(=O)c1c(O)c3c(c(O)c1C2=O)C[C@@](O)(C(=O)NCCN(C)C(=O)C1CCNC1)C[C@@H]3O[C@H]1C[C@H]2[C@H](O[C@@H]3[C@@H](OC)OCCN32)[C@H](C)O1` (single isomer, unassigned) [Compound 49] displayed an EC50 of 31 nM.

One may read the EC50 as the concentration giving half of the maximal effect. The low end stands for higher potency in that assay, the high end for lower potency in that assay.
